Experimental data published in patent publication US20070207975A1, “Materials and methods for treating and preventing Her-2/neu overexpressing, FAS-elevated cancer cells” (EVANSTON NORTHWESTERN HEALTHCARE, priority 2006, published 2007).
Like-named read-outs stand apart in the source and are kept apart here. Each block holds one molecule with its values, some of them ahead of it.

Assays:
Lipogenic Cells = assay: Effect of fatty acids, lipogenic cells (Table 2); type: cell-based
Breast Cancer Cells = assay: Effect of fatty acids, breast cancer cells (Table 2); type: cell-based; settings: FAS named only for oleic acid
SK-Br3 cells = assay: MTT cell viability / isobologram analysis, SK-Br3; type: cell-based, human
Method: (§1) FIG. 10. […] Cells in exponential growth were harvested, seeded at a concentration of ˜5×10^3 cells/200 μl/well into 96-well plates and allowed to attach overnight. […] Agents were studied in combination concurrently, and they were not renewed during the entire period of cell exposure. After treatment, the medium was removed and replaced by fresh drug-free medium (100 μl/well), and MTT (5 mg/ml in phosphate-buffered saline [PBS]) was added to each well at a 1/10 volume. After 2-3 hours at 37° C., the supernatants were removed, 100 μl of dimethylsulfoxide was added to each well, and the plates were agitated. Absorbances were measured at 570 nm using a multiwell plate reader (Model Anthos Labtec 2010 1.7 reader). The cell viability effects from exposure of cells to each agent alone and to their combination were analyzed by generating concentration-effect curves as a plot of the fraction of unaffected (surviving) cells versus drug concentration. Dose-response curves were plotted as percentages of the control cell absorbances, which were obtained from control wells treated with appropriate concentrations of vehicles that were processed simultaneously. For each treatment, cell viability was evaluated as a percentage using the following equation: (A570 of treated sample/A570 of untreated sample)×100. […] All statistical tests were two-sided. […]

SK-Br3 and BT-474 cells = assay: Soft-agar colony-formation assay; type: cell-based, human
[1] = system: Wild-type Her-2/neu promoter; assay: Luciferase reporter driven by wild-type Her-2/neu promoter, transient transfection; type: cell-based, human; settings: for inhibition at 20 µM: Homo sapiens, OA 20 μM, 24 hours, read-out: reduction (inhibition) of Her-2/neu gene promoter activity; for Luciferase activity relative to vehicle-treated wild-type promoter cells: GLA 10 μg/mL for 24 hours
Method: (§2) FIG. 11. Luciferase activity in transiently transfected cells. Luciferase activity was assayed in cells that were transiently transfected with a pGL2-Luc construct containing a luciferase reporter gene under the control of a Her-2/neu promoter fragment containing a wild-type (top panel, left) or mutant (top panel, right) PEA3 binding site as described herein. The magnitude of activation in Her-2/neu promoter-luciferase-transfected cells was determined after normalization of the luciferase activity obtained in cells co-transfected with equivalent amounts of the empty pGL2-Luciferase vector lacking the Her-2/neu promoter (-luciferase) and the internal control plasmid pRL-CMV. This control value was used to calculate the relative change in the transcriptional activities of Her-2/neu-promoter-luciferase-transfected cells in response to treatments after normalization to pRL-CMV. The activity of the wild-type promoter in untreated control cells was defined as 100%. […] One-factor ANOVA was used to analyzed differences in the percentages of luciferase activity between the various treatment groups.
The luciferase activities reported in Table 3 were assayed in cells that were transiently transfected with a pGL2-luciferase (Promega Inc., Madison, Wis.) construct containing a luciferase reporter gene under the control of a Her-2/neu promoter fragment containing a wild-type or mutant PEA3 binding site, as previously described by Xing et al. (36), incorporated herein by reference. […] Luciferase activity from cell extracts was detected with a Luciferase Assay System (Promega Inc.).
(§3) To conduct Her-2/neu promoter activity assays, cells were initially transfected using FuGENE 6 transfection reagent (Roche Biochemicals, Indianapolis, Ind.) as directed by the manufacturer. Overnight-serum starved cancer cells seeded into 24-well plates (˜5×10^4 cells/well) were transfected in low-serum (0.1% FBS) media with 1.5 μg/well of the pGL2-luciferase (Promega, Madison, Wis.) construct containing a luciferase reporter gene driven by either an intact (Her-2/neu wild-type PEA3-binding site-luciferase) or by a mutated (Her-2/neu mutated PEA3-binding site-luciferase) Her-2/neu promoter fragment along with […] of the internal control plasmid pRL-CMV, which was used to correct for transfection efficiency. […] Approximately 24 hours after treatments, luciferase activities from cell extracts were detected with a luciferase Assay System following manufacturer's instructions (Promega, Madison, Wis., USA) using a Victor^2™ Multilabel Counter (Perkin-Elmer Life Sciences).

Her-2/neu protein = assay: Immunoblot analysis of Her-2/neu protein; type: cell-based, human
[2] = system: Mutant Her-2/neu promoter; assay: Luciferase reporter driven by Her-2/neu promoter with mutated PEA3 binding site; type: cell-based, human; settings: for Luciferase activity relative to vehicle-treated wild-type promoter cells: mutant promoter, GLA 10 μg/mL for 24 hours
Method: as §2
The luciferase activities reported in Table 3 were assayed in cells that were transiently transfected with a pGL2-luciferase (Promega Inc., Madison, Wis.) construct containing a luciferase reporter gene under the control of a Her-2/neu promoter fragment containing a wild-type or mutant PEA3 binding site, as previously described by Xing et al. (36), incorporated herein by reference. Cells were transfected using FuGENE 6 transfection reagent (Roche Biochemicals, Indianapolis, Ind.) as directed by the manufacturer and were treated with vehicle (ethanol; EtOH) or γ-linolenic acid (10 μg/mL for 24 hours). Luciferase activity from cell extracts was detected with a Luciferase Assay System (Promega Inc.).
To examine whether the increased PEA3 levels might mediate the inhibition of Her-2/neu transcription in GLA-treated cells, the effect of GLA on transcription from a Her-2/neu promoter bearing a mutated PEA3 binding sequence, at −33 to −28, that is known to abolish PEA3 binding (36, incorporated herein by reference) was investigated. For this analysis we used the same luciferase reporter gene construct described above but containing the HER-2/neu promoter mutation at the PEA3 binding site (5′-GAG GAA-3′ at −33 to −28 changed to 5′-GAG CTC-3′).
as §3

BT-474 cells = assay: MTT cell viability / isobologram analysis, BT-474; type: cell-based, human
Method: as §1

Her-2/neu mRNA = assay: Semiquantitative RT-PCR of Her-2/neu transcripts; type: cell-based, human

regulation of luciferase reporter driven by promoter with mutated PEA3 site ([2]; OA-supplemented SK-Br3, SK-OV3 and NCI-N87 cells): not subject to negative regulation
SMILES: CCCCCCCCC=CCCCCCCCC(=O)O [OA, 9-octadecenoic acid]
Effect of Fatty Acids: Lipogenic Cells (Lipogenic Cells): No effect
Effect of Fatty Acids: Breast Cancer Cells (Breast Cancer Cells): Down-regulates
sensitization factor (IC50 without OA / IC50 with OA) (SK-Br3 cells; OA co-exposure, sensitization to trastuzumab): 27 fold
anchorage-independent colony formation in soft agar (SK-Br3 and BT-474 cells; SK-Br3 and BT-474, OA, trastuzumab or co-exposure): slightly decreased
inhibition at 20 µM ([1]; NCI-N87, 24 h, NCI-N87): 55%
inhibition at 20 µM ([1]; SK-BR-3, 24 h, SK-Br3): ≤ 56%
inhibition at 20 µM ([1]; SK-OV-3, 24 h, SK-OV3): ≤ 75%
reduction of Her-2/neu gene promoter activity ([1]; MCF-7/Her2-18 transfectants, OA supplementation): up to 22%
reduction of wild-type Her-2/neu promoter luciferase reporter activity ([1]; MCF-7/neo cells, OA treatment): up to 12%
reduction of Her-2/neu promoter activity ([1]; MCF-7 breast cancer cells (physiological Her-2/neu levels), OA): < 20%
Her-2/neu protein levels (Her-2/neu protein; MCF-7/Her2-18 transfectants (SV40 promoter), OA treatment): failed to decrease
Her-2/neu protein levels (Her-2/neu protein; MCF-7/neo cells, OA supplementation): not significantly affected
Her-2/neu protein expression (Her-2/neu protein; SK-Br3, SK-OV3 and NCI-N87, OA 20 μM, 48 hours): down-regulation
sensitization factor (IC50 without OA / IC50 with OA) (BT-474 cells; 10 mM OA, sensitization to trastuzumab): 40 fold
expression levels of Her-2/neu transcripts (RT-PCR) (Her-2/neu mRNA; OA-treated SK-Br3 cells): significant reduction

SMILES: CCCCCC=CCC=CCC=CCCCCC(=O)O [GLA, 6,9,12-octadecatrienoic acid]
Effect of Fatty Acids: Lipogenic Cells (Lipogenic Cells): No effect
Effect of Fatty Acids: Breast Cancer Cells (Breast Cancer Cells): Potent Down-regulator
increase in sensitivity to trastuzumab (SK-Br3 cells; concurrent 10 μg/ml GLA): ~40 fold
anchorage-independent growth in soft agar, effect of GLA cotreatment (SK-Br3 and BT-474 cells; BT-474 and SK-Br3, GLA with suboptimal doses of trastuzumab): enhanced the growth-inhibitory effects
Luciferase activity relative to vehicle-treated wild-type promoter cells ([1]; BT-474): 35% (95% CI = 33-37%)
Luciferase activity relative to vehicle-treated wild-type promoter cells ([1]; MDA-MB-231): 80% (95% CI = 75-85%)
Luciferase activity relative to vehicle-treated wild-type promoter cells ([1]; MDA-MB-453): 26% (95% CI = 25-27%)
Luciferase activity relative to vehicle-treated wild-type promoter cells ([1]; NCI-N87): 38% (95% CI = 34-42%)
Luciferase activity relative to vehicle-treated wild-type promoter cells ([1]; SK-Br3): 54% (95% CI = 51-57%)
Luciferase activity relative to vehicle-treated wild-type promoter cells ([1]; SK-OV3): 21% (95% CI = 16-26%)
Her-2/neu protein levels (Her-2/neu protein; BT-474 and SK-Br3, GLA 10 μg/mL for 48 hours): substantial reduction
Her-2/neu protein levels (Her-2/neu protein; MDA-MB-231 (low Her-2/neu), GLA exposure): did not affect
Her-2/neu protein levels (Her-2/neu protein; MDA-MB-453, SK-OV3 and NCI-N87, GLA 10 μg/mL for 48 hours): markedly decreased
Luciferase activity relative to vehicle-treated wild-type promoter cells ([2]; BT-474): 12% (95% CI = 9-15%)
Luciferase activity relative to vehicle-treated wild-type promoter cells ([2]; MDA-MB-231): 61% (95% CI = 59-63%)
Luciferase activity relative to vehicle-treated wild-type promoter cells ([2]; MDA-MB-453): 11% (95% CI = 3-19%)
Luciferase activity relative to vehicle-treated wild-type promoter cells ([2]; NCI-N87): 19% (95% CI = 12-26%)
Luciferase activity relative to vehicle-treated wild-type promoter cells ([2]; SK-Br3): 21% (95% CI = 18-24%)
Luciferase activity relative to vehicle-treated wild-type promoter cells ([2]; SK-OV3): 14% (95% CI = 6-22%)
increase in sensitivity to trastuzumab (BT-474 cells; concurrent 10 μg/ml GLA): approximately 30 fold
transcription of the Her-2/neu gene (RT-PCR) (Her-2/neu mRNA; BT-474 and SK-Br3, GLA 5, 10, or 20 μg/ml for 48 hours): Strong, dose-dependent decreases
